Values belong to the molecule of their own block, whether it stands above or below them.
What was measured:
[1] = test system: T47D (PI3Kα H1047R mutant) cells; assay: CellTiter-Glo 2.0 luminescent cell viability assay, 72 hours, T47D cells; format: cell-based; details: Homo sapiens, T47D, 72 h, T47D (PI3Kα H1047R mutant) cells, CellTiter-Glo, approximately 72 hours; read-out: T47D (H1047R mutant) Viability IC50
Experimental: This Example illustrates that exemplary compounds of the present invention decrease the viability of cells.
(§1) The ability of a compound of Formula (I) to decrease the viability of cells was measured using CellTiter-Glo 2.0 (CTG) Luminescent Cell Viability Assay (#G9241) obtained from Promega (Madison, WI).
To prepare assay plates for viability assays, cells were trypsinized, resuspended in fresh media, and viable cells were counted utilizing trypan blue exclusion. T47D, SKBR3, or MKN1 cells were seeded at 1000 cells in 30 μl per well in a solid white flat bottom 384 cell culture plate (Perkin Elmer #6007680) and incubated at 37° C. overnight.
(§2) Assay day 1, cells were dosed using an Echo Liquid Handler (Beckman Coulter) with compounds at a 10 um starting concentration and serially diluted (1:4) for a total of 10 concentrations. Cells were incubated for approximately 72 hours with the compounds (solubilized in DMSO) at 37° C. After 72 hours of treatment, cell plates were equilibrated to room temperature before adding 15 μl of CTG to each well, plates were then covered in aluminum foil to protect from light, incubated at room temperature for 30 minutes on a microtiter plate shaker, and luminescence readings were collected using a CLARIOstar microplate reader (BMG Labtech, Germany). Percent of vehicle control values were plotted as log (inhibitor) vs. response-Variable slope (four parameters) for curve fitting and IC50 values were determined using XLfit.

[2] = test system: SKBR3 (PI3Kα wild type) cells; assay: CellTiter-Glo 2.0 luminescent cell viability assay, 72 hours, SKBR3 cells; format: cell-based; details: Homo sapiens, SK-BR-3, 72 h, SKBR3 (PI3Kα wild type) cells, CellTiter-Glo, approximately 72 hours; read-out: SKBR3 (WT) Viability IC50
Experimental: as §1
To prepare assay plates for viability assays, cells were trypsinized, resuspended in fresh media, and viable cells were counted utilizing trypan blue exclusion.
as §2

SMILES: Cc1cc([C@@H](C)Nc2ccc(Cl)c(F)c2C(=O)O)c2nc(N3CCC(F)(F)CC3)c(C#N)c(=O)n2c1 [Example 11-89, (R)-3-chloro-6-((1-(3-cyano-2-(4,4-difluoropiperidin-1-yl)-7-methyl-4-oxo-4H-pyrido[1,2-a]pyrimidin-9-yl)ethyl)amino)-2-fluorobenzoic acid]
IC50 [1]: 3.15 µM
IC50 [2]: > 10 µM

SMILES: Cc1cc(C(C)Nc2cccnc2C(=O)O)c2nc(N3CCCCC3)c(C)c(=O)n2c1 (stereo not shown) [Example 11-356, 3-((1-(3,7-dimethyl-4-oxo-2-(piperidin-1-yl)-4H-pyrido[1,2-a]pyrimidin-9-yl)ethyl)amino)picolinic acid]
IC50 [1]: 0.532 µM
IC50 [2]: 1.2 µM

SMILES: Cc1cc([C@@H](C)Nc2ccc(Cl)nc2C(=O)O)c2nc(N3Cc4ccncc4C3)c(C#N)c(=O)n2c1 [Example 11-147, (R)-6-chloro-3-((1-(3-cyano-2-(1,3-dihydro-2H-pyrrolo[3,4-c]pyridin-2-yl)-7-methyl-4-oxo-4H-pyrido[1,2-a]pyrimidin-9-yl)ethyl)amino)picolinic acid]
IC50 [1]: 1.04 µM
IC50 [2]: > 10 µM

SMILES: Cc1cc([C@@H](C)Nc2ccccc2C(=O)O)c2nc(N3CCC4(CC3)COC4)c(C#N)c(=O)n2c1 [Example 11-208, (R)-2-((1-(3-cyano-7-methyl-4-oxo-2-(2-oxa-7-azaspiro[3.5]nonan-7-yl)-4H-pyrido[1,2-a]pyrimidin-9-yl)ethyl)amino)benzoic acid]
IC50 [1]: 0.469 µM
IC50 [2]: > 10 µM

SMILES: Cc1cc([C@H](C)Nc2ccc(C(F)(F)F)nc2C(=O)O)c2nc(N3Cc4ccccc4C3)c(C)c(=O)n2c1 [Example 11-353, (S)-3-((1-(2-(isoindolin-2-yl)-3,7-dimethyl-4-oxo-4H-pyrido[1,2-a]pyrimidin-9-yl)ethyl)amino)-6-(trifluoromethyl) picolinic acid]
IC50 [1]: 6.29 µM
IC50 [2]: > 10 µM

SMILES: Cc1cc([C@@H](C)Nc2ccccc2C(=O)O)c2nc(N3C[C@H]4C[C@@H]3CC4(F)F)c(C#N)c(=O)n2c1 [Example 11-230, 2-(((R)-1-(3-cyano-2-((1R,4R)-5,5-difluoro-2-azabicyclo[2.2.1]heptan-2-yl)-7-methyl-4-oxo-4H-pyrido[1,2-a]pyrimidin-9-yl)ethyl)amino)benzoic acid]
IC50 [1]: 0.201 µM
IC50 [2]: > 10 µM

SMILES: Cc1cc([C@@H](C)Nc2ccccc2C(=O)O)c2nc(N3CCN(C4CCOCC4)CC3)c(C)c(=O)n2c1 [Example 11-187, (R)-2-((1-(3,7-dimethyl-4-oxo-2-(4-(tetrahydro-2H-pyran-4-yl)piperazin-1-yl)-4H-pyrido[1,2-a]pyrimidin-9-yl)ethyl)amino)benzoic acid]
IC50 [1]: 0.406 µM
IC50 [2]: > 10 µM

SMILES: Cc1cc([C@@H](C)Nc2ccccc2C(=O)O)c2nc(N3CC4(CO)CCCC3C4)c(C)c(=O)n2c1 (stereo partly drawn) [Example 10-144, 2-(((1R)-1-(2-(1-(hydroxymethyl)-6-azabicyclo[3.2.1]octan-6-yl)-3,7-dimethyl-4-oxo-4H-pyrido[1,2-a]pyrimidin-9-yl)ethyl)amino)benzoic acid]
IC50 [1]: 0.0913 µM
IC50 [2]: > 10 µM

SMILES: Cc1cc([C@@H](C)Nc2ccccc2C(=O)O)c2nc(N3CCN(c4ccc(C#N)cc4)[C@H](C)C3)c(C#N)c(=O)n2c1 [Example 11-270, 2-(((R)-1-(3-cyano-2-((R)-4-(4-cyanophenyl)-3-methylpiperazin-1-yl)-7-methyl-4-oxo-4H-pyrido[1,2-a]pyrimidin-9-yl)ethyl)amino)benzoic acid]
IC50 [1]: 0.227 µM
IC50 [2]: > 10 µM

SMILES: Cc1cc([C@@H](C)Nc2scnc2C(=O)O)c2nc(N3CCC(F)(F)CC3)c(C#N)c(=O)n2c1 [Example 11-292, (R)-5-((1-(3-cyano-2-(4,4-difluoropiperidin-1-yl)-7-methyl-4-oxo-4H-pyrido[1,2-a]pyrimidin-9-yl)ethyl)amino)thiazole-4-carboxylic acid]
IC50 [1]: 3.95 µM
IC50 [2]: > 10 µM

SMILES: Cc1cc(C(C)Nc2cccc(F)c2C(=O)O)c2nc(N3Cc4ccccc4C3)c(C)c(=O)n2c1 (stereo not shown) [Example 11-368, 2-fluoro-6-((1-(2-(isoindolin-2-yl)-3,7-dimethyl-4-oxo-4H-pyrido[1,2-a]pyrimidin-9-yl)ethyl)amino)benzoic acid]
IC50 [1]: 0.856 µM

Second part, the molecule after the results:

IC50 [1]: > 10 µM
IC50 [2]: > 10 µM
SMILES: Cc1cc([C@H](C)Nc2ccccc2C(=O)O)c2nc([C@@H]3CCN(C)C(=O)C3)cc(=O)n2c1 [Example 11-375, 2-(((S)-1-(7-methyl-2-((R)-1-methyl-2-oxopiperidin-4-yl)-4-oxo-4H-pyrido[1,2-a]pyrimidin-9-yl)ethyl)amino)benzoic acid]

IC50 [1]: 3.37 µM
IC50 [2]: > 10 µM
SMILES: Cc1cc(C(C)Nc2ccccc2C(=O)O)c2nc(-c3ccc(C#N)cc3)cc(=O)n2c1 (stereo not shown) [Example 11-397, 2-((1-(2-(4-cyanophenyl)-7-methyl-4-oxo-4H-pyrido[1,2-a]pyrimidin-9-yl)ethyl)amino)benzoic acid]

IC50 [1]: 0.0566 µM
IC50 [2]: > 10 µM
SMILES: Cc1cc([C@@H](C)Nc2ccccc2C(=O)O)c2nc(N3Cc4ccc(F)cc4C3)c(C)c(=O)n2c1 [Example 10-134, (R)-2-((1-(2-(5-fluoroisoindolin-2-yl)-3,7-dimethyl-4-oxo-4H-pyrido[1,2-a]pyrimidin-9-yl)ethyl)amino)benzoic acid]

IC50 [1]: 0.119 µM
IC50 [2]: > 10 µM
SMILES: Cc1cc([C@@H](C)Nc2ccccc2C(=O)O)c2nc(N3CCC(F)(F)C3)c(C)c(=O)n2c1 [Example 11-140, (R)-2-((1-(2-(3,3-difluoropyrrolidin-1-yl)-3,7-dimethyl-4-oxo-4H-pyrido[1,2-a]pyrimidin-9-yl)ethyl)amino)benzoic acid]

IC50 [1]: 3.6 µM
IC50 [2]: > 10 µM
SMILES: Cc1cc([C@@H](C)Nc2ccccc2C(=O)O)c2nc(-c3c[nH]cn3)c(C)c(=O)n2c1 [Example 11-235, (R)-2-((1-(2-(1H-imidazol-4-yl)-3,7-dimethyl-4-oxo-4H-pyrido[1,2-a]pyrimidin-9-yl)ethyl)amino)benzoic acid]

IC50 [1]: 0.32 µM
IC50 [2]: > 10 µM
SMILES: Cc1cc([C@@H](C)Nc2ccccc2C(=O)O)c2nc(N3CCC(F)(F)[C@@H]3C)c(C)c(=O)n2c1 [Example 11-122, 2-(((R)-1-(2-((S)-3,3-difluoro-2-methylpyrrolidin-1-yl)-3,7-dimethyl-4-oxo-4H-pyrido[1,2-a]pyrimidin-9-yl)ethyl)amino)benzoic acid]

IC50 [1]: 4.32 µM
IC50 [2]: > 10 µM
SMILES: Cc1cc(C(C)Nc2ccccc2C(=O)O)c2nc(N3CCc4cnn(C)c4C3)cc(=O)n2c1 (stereo not shown) [Example 11-382, 2-((1-(7-methyl-2-(1-methyl-1,4,5,7-tetrahydro-6H-pyrazolo[3,4-c]pyridin-6-yl)-4-oxo-4H-pyrido[1,2-a]pyrimidin-9-yl)ethyl)amino)benzoic acid]

IC50 [1]: 0.646 µM
IC50 [2]: > 10 µM
SMILES: Cc1cc([C@@H](C)Nc2ccccc2C(=O)O)c2nc(NC[C@H]3CCOC3)c(C)c(=O)n2c1 [Example 11-196, 2-(((R)-1-(3,7-dimethyl-4-oxo-2-((((R)-tetrahydrofuran-3-yl)methyl)amino)-4H-pyrido[1,2-a]pyrimidin-9-yl)ethyl)amino)benzoic acid]

IC50 [1]: 3.82 µM
IC50 [2]: > 10 µM
SMILES: Cc1cc([C@@H](C)Nc2ccccc2C(=O)O)c2nc(N3CCCC(O)C3)c(C#N)c(=O)n2c1 (stereo partly drawn) [Example 11-324, 2-(((1R)-1-(3-cyano-2-(3-hydroxypiperidin-1-yl)-7-methyl-4-oxo-4H-pyrido[1,2-a]pyrimidin-9-yl)ethyl)amino)benzoic acid]

IC50 [1]: 0.144 µM
IC50 [2]: > 10 µM
SMILES: COC1CCN(c2nc3c([C@@H](C)Nc4ccccc4C(=O)O)cc(C)cn3c(=O)c2C#N)CC1(F)F (stereo partly drawn) [Example 11-67, 2-(((1R)-1-(3-cyano-2-(3,3-difluoro-4-methoxypiperidin-1-yl)-7-methyl-4-oxo-4H-pyrido[1,2-a]pyrimidin-9-yl)ethyl)amino)benzoic acid]

IC50 [1]: 0.557 µM
IC50 [2]: > 10 µM
SMILES: Cc1cc([C@@H](C)Nc2ccccc2C(=O)O)c2nc(N3CCc4scnc4C3)c(C#N)c(=O)n2c1 [Example 11-306, (R)-2-((1-(3-cyano-2-(6,7-dihydrothiazolo[4,5-c]pyridin-5(4H)-yl)-7-methyl-4-oxo-4H-pyrido[1,2-a]pyrimidin-9-yl)ethyl)amino)benzoic acid]

IC50 [1]: 0.35 µM
IC50 [2]: > 10 µM
SMILES: CO[C@@H]1CN(c2nc3c([C@@H](C)Nc4ccccc4C(=O)O)cc(C)cn3c(=O)c2C)CC1(F)F [Example 11-117, 2-(((R)-1-(2-((R)-3,3-difluoro-4-methoxypyrrolidin-1-yl)-3,7-dimethyl-4-oxo-4H-pyrido[1,2-a]pyrimidin-9-yl)ethyl)amino)benzoic acid]

IC50 [1]: > 10 µM
SMILES: Cc1cc(C(C)Nc2ccccc2C(=O)O)c2nc(N3CCN(C)C(=O)C3)cc(=O)n2c1 (stereo not shown) [Example 11-384, 2-((1-(7-methyl-2-(4-methyl-3-oxopiperazin-1-yl)-4-oxo-4H-pyrido[1,2-a]pyrimidin-9-yl)ethyl)amino)benzoic acid]

— patent US20260078120A1, “SUBSTITUTED PYRIDOPYRIMIDINONES” (MIRATI THERAPEUTICS, INC., priority 2022, published 2026)
